Data taken from patent US9113629B2, “4-amino-6-(4-substituted-phenyl)-picolinates and 6-amino-2-(4-substituted-phenyl)-pyrimidine-4-carboxylates and their use as herbicides” (DOW AGROSCIENCES LLC, priority 2013, dated 2015).
Read-outs that look alike come from different tables or passages of the source.

What was measured:
[1] = system: Key Broadleaf Weed and Crop Species; test: Post-emergent Test II herbicidal activity (Table 5); assay type: in vivo; conditions: post-emergence, 336 h, post-emergent, 14 days after application; for pest or weed control at 70 g/ha: 70 g ai/ha; for pest or weed control at 140 g/ha: 140 g ai/ha
Method in brief: (§1)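 Percent injury, 0 (none) to 100 (complete kill), was judged visually 14 d after spraying young plants at the first or second true leaf stage with compound in an acetone/DMSO aqueous carrier at 187 L/ha. Plants were kept in a greenhouse at 23–29 °C by day.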

[2] = system: Key Grass and Sedge Weeds as well as Grass Crops; test: Post-emergent Test II herbicidal activity (Table 6); assay type: in vivo; conditions: post-emergence, 336 h; for pest or weed control at 70 g/ha: application rate 70 g ai/ha; for pest or weed control at 140 g/ha: application rate 140 g ai/ha
Method in brief: as §1

[3] = ABUTH: velvetleaf (Abutilon theophrasti), read-out: Visual Growth Reduction (%) 14 Days After Application ABUTH
[4] = AMARE: redroot pigweed (Amaranthus retroflexus), read-out: Visual Growth Reduction (%) 14 Days After Application AMARE
[5] = BRSNN: oilseed-rape, canola (Brassica napus), read-out: Visual Growth Reduction (%) 14 Days After Application BRSNN
[6] = CHEAL: lambsquarters (Chenopodium album), read-out: Visual Growth Reduction (%) 14 Days After Application CHEAL
[7] = EPHHL: wild poinsettia (Euphorbia heterophylla), read-out: Visual Growth Reduction (%) 14 Days After Application EPHHL
[8] = HELAN: sunflower (Helianthus annuus), read-out: Visual Growth Reduction (%) 14 Days After Application HELAN
[9] = VIOTR: wild pansy (Viola tricolor), read-out: Visual Growth Reduction (%) 14 Days After Application VIOTR
[10] = CYPES: yellow nutsedge (Cyperus esculentus), read-out: Visual Growth Reduction (%) 14 Days After Application, CYPES
[11] = DIGSA: crabgrass (Digitaria sanguinalis), read-out: Visual Growth Reduction (%) 14 Days After Application, DIGSA
[12] = ECHCG: barnyardgrass (Echinochloa crus-galli), read-out: Visual Growth Reduction (%) 14 Days After Application, ECHCG
[13] = ORYSA: rice (Oryza sativa), read-out: Visual Growth Reduction (%) 14 Days After Application, ORYSA
[14] = SETFA: giant foxtail (Setaria faberi), read-out: Visual Growth Reduction (%) 14 Days After Application, SETFA
[15] = SORVU: grain sorghum (Sorghum vulgare), read-out: Visual Growth Reduction (%) 14 Days After Application, SORVU
[16] = TRZSS (wheat, Triticum aestivum), read-out: Visual Growth Reduction (%) 14 Days After Application, TRZSS
[17] = ZEAMX: maize, corn (Zea mays), read-out: Visual Growth Reduction (%) 14 Days After Application, ZEAMX

N#Cc1ccc(-c2nc(C(=O)O)c(Cl)c(N)c2F)c(F)c1 [Compound 65, 4-amino-3-chloro-6-(4-cyano-2-fluorophenyl)-5-fluoropicolinic acid]
60 to 74%: pest or weed control at 70 g/ha [1, 6]
85 to 94%: pest or weed control at 70 g/ha [1, 8]
75 to 84%: pest or weed control at 140 g/ha [1, 6]
30 to 44%: pest or weed control at 140 g/ha [1, 5] | pest or weed control at 140 g/ha [1, 9]
95 to 100%: pest or weed control at 70 g/ha [1, 4] | pest or weed control at 140 g/ha [1, 4] | pest or weed control at 70 g/ha [1, 7] | pest or weed control at 140 g/ha [1, 7] | pest or weed control at 140 g/ha [1, 8]
0 to 29%: pest or weed control at 70 g/ha [1, 3] | pest or weed control at 140 g/ha [1, 3] | pest or weed control at 70 g/ha [1, 5] | pest or weed control at 70 g/ha [1, 9] | pest or weed control at 70 g/ha [2, 10] | pest or weed control at 140 g/ha [2, 10] | pest or weed control at 70 g/ha [2, 11] | pest or weed control at 140 g/ha [2, 11] | pest or weed control at 70 g/ha [2, 12] | pest or weed control at 140 g/ha [2, 12] | pest or weed control at 70 g/ha [2, 13] | pest or weed control at 140 g/ha [2, 13] | pest or weed control at 70 g/ha [2, 14] | pest or weed control at 140 g/ha [2, 14] | pest or weed control at 70 g/ha [2, 15] | pest or weed control at 140 g/ha [2, 15] | pest or weed control at 70 g/ha [2, 16] | pest or weed control at 140 g/ha [2, 16] | pest or weed control at 70 g/ha [2, 17] | pest or weed control at 140 g/ha [2, 17]
